Assays:
Experiment in all cases: Assay B: in vitro antibacterial activity, broth microdilution MIC (NCCLS)
Assay type in all cases: cell-based
[1] = system: Enterococcus faecalis PIU 1967; details: Table 2, Assay B, cation-adjusted Mueller Hinton broth, 35° C., 16 to 20 hr; code B = Enterococcus faecalis PIU 1967; unit assumed
In short: (§1)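 NCCLS broth microdilution with two-fold dilutions in cation-adjusted Mueller Hinton broth, inoculum about 5×10^5 CFU/mL, 35 °C in ambient air for 16-20 h; MIC read visually as lowest concentration completely inhibiting growth. S. pneumoniae: 3% lysed horse blood, 20-24 h; H. influenzae: 5 g/L yeast extract, 0.3 mmol/L hematin, 15 mg/L NAD, 20-24 h.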

Escherichia coli JUHL = details: Table 2, Assay B, cation-adjusted Mueller Hinton broth, 35° C., 16 to 20 hr; code D = Escherichia coli JUHL; unit assumed
In short: as §1

[2] = system: Haemophilus influenzae DILL AMP R; details: Table 2, Assay B, Mueller Hinton broth with yeast extract, hematin and NAD, 20 to 24 hr; code E = Haemophilus influenzae DILL AMP R; unit assumed
In short: as §1

[3] = system: Staphylococcus aureus ATCC 6538P; details: Table 2, Assay B, cation-adjusted Mueller Hinton broth, 35° C., 16 to 20 hr; code A = Staphylococcus aureus ATCC 6538P; unit assumed
In short: as §1

[4] = system: Streptococcus pneumoniae ATCC 6303; details: Table 2, Assay B, Mueller Hinton broth with 3% lysed horse blood, 20 to 24 hr; code F = Streptococcus pneumoniae ATCC 6303; unit assumed
In short: as §1

Row | Compound | Antibacterial Activity (MIC's), B [1] | Antibacterial Activity (MIC's), D (Escherichia coli JUHL) | Antibacterial Activity (MIC's), E [2] | Antibacterial Activity (MIC's), A [3] | Antibacterial Activity (MIC's), F [4]
1 | CON=C1CCc2sc(-c3ccc4c(=O)c(C(=O)O)cn(C5CC5)c4c3OC)cc2C1 [Example 56, 1-cyclopropyl-8-methoxy-7-((5E/Z)-5-(methoxnimino)-4,5,6,7-tetrahydro-1-benzothien-2-yl)-4-oxo-1,4-dihydro-3-quinolinecarboxylic acid] | 0.5 µg/mL | 4 µg/mL | 0.25 µg/mL | 0.03 µg/mL | 0.125 µg/mL
2 | Cl.NC1CCCc2cc(-c3ccc4c(=O)c(C(=O)O)cn(C5CC5)c4c3Cl)sc21 (stereo not drawn) [Example 330, 7-(7-amino-4,5,6,7-tetrahydro-1-benzothien-2-yl)-8-chloro-1-cyclopropyl-4-oxo-1,4-dihydroquinoline-3-carboxylic acid hydrochloride] | 0.06 µg/mL | 0.03 µg/mL | 0.008 µg/mL | 0.015 µg/mL | 0.03 µg/mL
3 | COc1c(-c2cc3c(s2)C(N)C(F)(F)CC3)ccc2c(=O)c(C(=O)O)cn(C3CC3)c12.Cl (stereo not drawn) [Example 244, 7-(7-amino-6,6-difluoro-4,5,6,7-tetrahydro-1-benzothien-2-yl)-1-cyclopropyl-8-methoxy-4-oxo-1,4-dihydro-3-quinolinecarboxylic acid hydrochloride] | 0.125 µg/mL | 1 µg/mL | 0.06 µg/mL | ≤ 0.004 µg/mL | 1 µg/mL
4 | Cc1c(-c2cc3c(s2)C(N)CCC3)c(F)cc2c(=O)c(C(=O)O)cn(C3CC3)c12.Cl (stereo not drawn) [Example 368, 7-(7-amino-4,5,6,7-tetrahydro-1-benzothien-2-yl)-1-cyclopropyl-6-fluoro-8-methyl-4-oxo-1,4-dihydroquinoline-3-carboxylic acid hydrochloride] | 0.06 µg/mL | 0.03 µg/mL | ≤ 0.004 µg/mL | 0.015 µg/mL | 0.03 µg/mL
5 | Cl.NC1CCCc2sc(-c3cc4c(cc3F)c(=O)c(C(=O)O)cn4C3CC3)cc21 (stereo not drawn) [Example 307, 7-(4-amino-4,5,6,7-tetrahydro-1-benzothien-2-yl)-1-cyclopropyl-6-fluoro-4-oxo-1,4-dihydroquinoline-3-carboxylic acid hydrochloride] | 0.03 µg/mL | 0.03 µg/mL | 0.015 µg/mL | 0.008 µg/mL | 0.008 µg/mL
6 | Cl.NC1CCCc2sc(-c3ccc4c(=O)c(C(=O)O)cn(C5CC5)c4c3)cc21 (stereo not drawn) [Example 287, 7-(4-amino-4,5,6,7-tetrahydro-1-benzothien-2-yl)-1-cyclopropyl-4-oxo-1,4-dihydroquinoline-3-carboxylic acid hydrochloride] | 0.125 µg/mL | 0.06 µg/mL | 0.03 µg/mL | 0.03 µg/mL | 0.03 µg/mL
7 | COc1c(-c2cc3c(s2)S(=O)(=O)CCC3N)ccc2c(=O)c(C(=O)O)cn(C3CC3)c12.Cl (stereo not drawn) [Example 143, 7-(4-amino-7,7-dioxido-5,6-dihydro-4H-thieno[2,3-b]thiopyran-2-yl)-1-cyclopropyl-8-methoxy-4-oxo-1,4-dihydro-3-quinolinecarboxylic acid hydrochloride] | 0.5 µg/mL | 64 µg/mL | 0.125 µg/mL | 0.125 µg/mL | 0.5 µg/mL
8 | COc1c(-c2cc3c(s2)CCCC3=NNC(C)=O)ccc2c(=O)c(C(=O)O)cn(C3CC3)c12 [Example 96, 7-((4E/Z)-4-(acetylhydrazono)-4,5,6,7-tetrahydro-1-benzothien-2-yl)-1-cyclopropyl-8-methoxy-4-oxo-1,4-dihydro-3-quinolinecarboxylic acid] | 0.5 µg/mL | 1 µg/mL | 0.03 µg/mL | < 0.004 µg/mL | 0.03 µg/mL
9 | COC(=O)NC1Cc2cc(-c3ccc4c(=O)c(C(=O)O)cn(C5CC5)c4c3OC)sc2C1 (stereo not drawn) [Example 251, 1-cyclopropyl-8-methoxy-7-(5-((methoxvycarbonyl)amino)-5,6-dihydro-4H-cyclopenta[b]thien-2-yl)-4-oxo-1,4-dihydro-3-quiunolinecarboxylic acid] | 0.5 µg/mL | 2 µg/mL | 0.125 µg/mL | 0.03 µg/mL | 0.25 µg/mL
10 | COc1c(-c2cc3c(s2)C(O)CCC3)c(F)cc2c(=O)c(C(=O)O)cn(C3CC3)c12 (stereo not drawn) [Example 299, 1-cyclopropyl-6-fluoro-7-(7-hydroxy-4,5,6,7-tetrahydro-1-benzothien-2-yl)-8-methoxy-4-oxo-1,4-dihydroquinoline-3-carboxylic acid] | 0.06 µg/mL | 0.125 µg/mL | 0.03 µg/mL | ≤ 0.004 µg/mL | 0.06 µg/mL

More lines, now with the values ahead:

Row | Antibacterial Activity (MIC's), B [1] | Antibacterial Activity (MIC's), D (Escherichia coli JUHL) | Antibacterial Activity (MIC's), E [2] | Antibacterial Activity (MIC's), A [3] | Antibacterial Activity (MIC's), F [4] | Compound
11 | 0.5 µg/mL | 2 µg/mL | 0.5 µg/mL | 0.03 µg/mL | 0.5 µg/mL | COc1c(-c2cc3c(s2)CC(C)(C)CC3O)ccc2c(=O)c(C(=O)O)cn(C3CC3)c12 (stereo not drawn) [Example 234, 1-cyclopropyl-7-(4-hydroxy-6,6-dimethyl-4,5,6,7-tetrahydro-1-benzothien-2-yl)-8-methoxy-4-oxo-1,4-dihydro-3-quinolinecarboxylic acid]
12 | 1 µg/mL | 4 µg/mL | 0.25 µg/mL | 0.5 µg/mL | 1 µg/mL | COc1c(-c2cc3c(s2)CC(NC(C)=O)C3)ccc2c(=O)c(C(=O)O)cn(C3CC3)c12 (stereo not drawn) [Example 252, 7-(5-(acetylamino)-5,6-dihydro-4H-cyclopenta[b]thien-2-yl)-1-cyclopropyl-8-methoxy-4-oxo-1,4-dihydro-3-quinolinecarboxylic acid]
13 | 1 µg/mL | 4 µg/mL | 0.5 µg/mL | 0.125 µg/mL | 4 µg/mL | COc1c(-c2cc3c(s2)CC(C)(C)CC3)ccc2c(=O)c(C(=O)O)cn(C3CC3)c12 [Example 236, 1-cyclopropyl-7-(6,6-dimethyl-4,5,6,7-tetrahydro-1-benzothien-2-yl)-8-methoxy-4-oxo-1,4-dihydro-3-quinolinecarboxylic acid]
14 | 0.5 µg/mL | 0.5 µg/mL | 0.25 µg/mL | 0.125 µg/mL | 0.125 µg/mL | COc1c(-c2cc3c(s2)CCCC3N2CC(N)C2)ccc2c(=O)c(C(=O)O)cn(C3CC3)c12.Cl.Cl (stereo not drawn) [Example 212, 7-[4-(3-amino-1-azetidinyl)-4,5,6,7-tetrahydro-1-benzothien-2-yl]-1-cyclopropyl-8-methoxy-4-oxo-1,4-dihydro-3-quinolinecarboxylic acid dihydrochloride]
15 | 1 µg/mL | 2 µg/mL | 0.5 µg/mL | 0.125 µg/mL | 1 µg/mL | COc1c(-c2cc3c(s2)CCCC3n2cccc2)ccc2c(=O)c(C(=O)O)cn(C3CC3)c12 (stereo not drawn) [Example 89, 1-cyclopropyl-8-methoxy-4-oxo-7-(4-(1H-pyrrol-1-yl)-4,5,6,7-tetrahydro-1-benzothien-2-yl)-1,4-dihydro-3-quinolinecarboxylic acid]
16 | 0.125 µg/mL | 0.25 µg/mL | 0.06 µg/mL | 0.015 µg/mL | 0.03 µg/mL | CNC1CCCc2sc(-c3ccc4c(=O)c(C(=O)O)cn(C5CC5)c4c3OC)cc21.Cl (stereo not drawn) [Example 77, 1-cyclopropyl-8-methoxy-7-[4-(methylamino)-4,5,6,7-tetrahydro-1-benzothien-2-yl]-4-oxo-1,4-dihydro-3-quinolinecarboxylic acid hydrochloride]
17 | 0.03 µg/mL | 0.125 µg/mL | 0.015 µg/mL | 0.03 µg/mL | 0.06 µg/mL | COc1c(-c2cc3c(s2)CCC(CN)C3)ccc2c(=O)c(C(=O)O)cn(C3CC3)c12.Cl (stereo not drawn) [Example 70, 7-(5-(aminomethyl)-4,5,6,7-tetrahydro-1-benzothien-2-yl)-1-cyclopropyl-8-methoxy-4-oxo-1,4-dihydro-3-quinolinecarboxylic acid hydrochloride]
18 | 0.03 µg/mL | 0.03 µg/mL | 0.008 µg/mL | ≤ 0.004 µg/mL | 0.008 µg/mL | Cl.NC1CCCc2sc(-c3ccc4c(=O)c(C(=O)O)cn(C5CC5)c4c3Cl)cc21 (stereo not drawn) [Example 329, 7-(4-amino-4,5,6,7-tetrahydro-1-benzothien-2-yl)-8-chloro-1-cyclopropyl-4-oxo-1,4-dihydroquinoline-3-carboxylic acid hydrochloride]

From patent US20020049223A1, “Quinoline and naphthyridine carboxylic acid antibacterials” (priority 1999, published 2002)
